Data: PMC11482831 (bioRxiv, 2024)
Bridge positions count the residues as written; N and C are the ends. Ends that are not written are not given here.

Legend:
[1] = cited from earlier work
[2] = target: T1, CTR + RAMP3 (Homo sapiens, UniProt O60896+P30988); experiment: cAMP signaling CAMYEL biosensor BRET assay in COS-7 cells, CTR + RAMP3; settings: 30 min, 37°C
T1 sequence (P30988 25-474): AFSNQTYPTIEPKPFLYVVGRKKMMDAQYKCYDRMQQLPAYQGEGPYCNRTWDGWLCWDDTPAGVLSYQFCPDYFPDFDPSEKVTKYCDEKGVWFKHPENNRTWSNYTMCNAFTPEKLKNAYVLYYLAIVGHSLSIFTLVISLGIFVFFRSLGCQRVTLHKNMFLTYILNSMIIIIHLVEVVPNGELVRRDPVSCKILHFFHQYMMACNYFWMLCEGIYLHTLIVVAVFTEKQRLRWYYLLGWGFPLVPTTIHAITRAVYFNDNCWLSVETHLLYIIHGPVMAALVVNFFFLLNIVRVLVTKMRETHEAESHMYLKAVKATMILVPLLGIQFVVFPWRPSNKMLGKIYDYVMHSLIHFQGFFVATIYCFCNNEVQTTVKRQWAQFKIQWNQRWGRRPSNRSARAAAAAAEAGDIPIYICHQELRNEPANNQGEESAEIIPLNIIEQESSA
T1 sequence (O60896 24-148): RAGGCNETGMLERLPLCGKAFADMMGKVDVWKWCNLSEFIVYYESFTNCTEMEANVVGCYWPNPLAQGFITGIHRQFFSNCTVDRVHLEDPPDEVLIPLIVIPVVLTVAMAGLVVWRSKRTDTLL

[3] = target: CTR:R1 (AMY1R) (Homo sapiens, UniProt O60894+P30988); experiment: Native PAGE agonist titration with excess SUMO-miniGs, AMY1R; settings: 50 μM SUMO-miniGs
[4] = tested on: AMY1R (CTR:RAMP1); experiment: Native PAGE mobility shift assay, single-point, AMY1R; assay type: biochemical, human; settings: 10 μM agonist, no mGs, detergent-solubilized (LMNG/CHS), in-gel mCitrine fluorescence, qualitative, three replicates
[5] = target: T2, CTR:R3 (AMY3R) (Homo sapiens, UniProt O60896+P30988); settings: 50 μM SUMO-miniGs, agonist titration
T2 sequence (P30988 25-474): T1 sequence (P30988 25-474)
T2 sequence (O60896 25-148): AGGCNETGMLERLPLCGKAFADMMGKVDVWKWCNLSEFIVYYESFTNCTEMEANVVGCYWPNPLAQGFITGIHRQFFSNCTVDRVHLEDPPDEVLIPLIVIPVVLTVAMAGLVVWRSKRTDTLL

[6] = target: CTR:R2 (AMY2R) (Homo sapiens, UniProt O60895+P30988); settings: 50 μM SUMO-miniGs, agonist titration
[7] = target: CTR + RAMP1 (Homo sapiens, UniProt O60894+P30988); experiment: cAMP signaling CAMYEL biosensor BRET assay in COS-7 cells, CTR + RAMP1; settings: 30 min, 37°C, vs CTR alone
[8] = target: AMY1R (HiBiT-CTR:mCitrine-RAMP1) (Homo sapiens, UniProt O60894+P30988); experiment: CTR:RAMP cell surface proximity BRET assay, AMY1R; assay type: cell-based; settings: 300 nM agonist, HEK293 cells, room temperature, 30 min, pH 7.4
[9] = target: T3, AMY3R (HiBiT-CTR:mCitrine-RAMP3) (Homo sapiens, UniProt O60896+P30988); experiment: CTR:RAMP cell surface proximity BRET assay, AMY3R; assay type: cell-based; settings: 300 nM agonist, HEK293 cells, room temperature, 30 min, pH 7.4
T3 sequence (P30988 25-474): T1 sequence (P30988 25-474)

[10] = tested on: AMY2R (HiBiT-CTR:mCitrine-RAMP2); experiment: CTR:RAMP cell surface proximity BRET assay, AMY2R; assay type: cell-based, human; settings: 300 nM agonist, HEK293 cells, room temperature, 30 min, pH 7.4
[11] = tested on: AMY2R (CTR:RAMP2); experiment: Native PAGE mobility shift assay, single-point, AMY2R; assay type: biochemical, human; settings: 10 μM agonist, no mGs, detergent-solubilized (LMNG/CHS), in-gel mCitrine fluorescence, qualitative, three replicates
[12] = target: AMY1R on cells (HiBiT-CTR.25–474 : mCitrine-RAMP1.24–148) (human) (UniProt O60894); experiment: FRET or BRET

Chain of CTR:R1 (AMY1R) (O60894 24-148, one chain of several): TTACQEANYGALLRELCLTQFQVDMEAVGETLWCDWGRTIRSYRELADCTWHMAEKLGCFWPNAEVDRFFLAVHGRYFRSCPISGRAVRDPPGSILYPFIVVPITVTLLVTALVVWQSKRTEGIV
Chain of AMY1R (HiBiT-CTR:mCitrine-RAMP1) (O60894 24-148, one chain of several): as above
Chain of CTR + RAMP1 (O60894 27-148, one chain of several): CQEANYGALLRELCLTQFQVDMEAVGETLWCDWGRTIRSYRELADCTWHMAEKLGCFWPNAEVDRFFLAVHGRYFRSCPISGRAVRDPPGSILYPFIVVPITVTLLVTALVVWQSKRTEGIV
Chain of CTR:R2 (AMY2R) (O60895 55-175, one chain of several): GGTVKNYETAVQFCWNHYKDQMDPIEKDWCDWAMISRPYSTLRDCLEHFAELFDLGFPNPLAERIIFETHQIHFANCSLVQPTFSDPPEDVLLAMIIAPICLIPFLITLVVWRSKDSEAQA
Chain of human αCGRP (P06881 83-119): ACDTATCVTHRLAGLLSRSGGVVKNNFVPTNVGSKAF

Substance	Effect on CTR-RAMP1 association/dissociation, free RAMP1 [3]	Change of subunit distribution (free RAMP1 / AMY1R heterodimer) [4]	Subunit dissociation (increase in free RAMP3) [5]	Change in CTR:RAMP proximity BRET signal, real-time [8]	Change in CTR:RAMP proximity BRET signal, real-time [9]	Change in CTR:RAMP proximity BRET signal, real-time [10]	Change of subunit distribution (AMY2R heterodimer / oligomers) [11]	other results
cagrilintide (KCNTATCATQRLAEFLRHSSNNFGPILPPTNVGSNTP; chains of the INN, looked up)								Weight loss in clinical trials ([1]; ref [9]-[12]): promote substantial weight loss
human calcitonin [hCT]	little or no effect on subunit association/dissociation	did not appreciably change the free RAMP1	promoted AMY3R dissociation	similarly decreased it	decreased the BRET signal	a brief initial decrease followed by a gradual increase	induced formation of a higher order oligomeric species of unknown molecular composition	Steepness of cAMP concentration-response curve [2]: steeper than the other curves; Potency change on RAMP3 co-expression, cAMP ([2]; vs CTR alone): decreased hCT potency; Quaternary complex formation (in words) [5]: little if any quaternary complex; Quaternary complex formation (in words) [6]: little if any quaternary complex; Potency change on RAMP1 co-expression, cAMP [7]: did not change hCT potency
human αCGRP (from UniProt P06881 83-119) (peptide)								EC50 [12]: 30 nM
pramlintide (KCNTATCATQRLANFLVHSSNNFGPILPPTNVGSNTY-NH2; disulfide 2-7; UniProt P10997 34-70, looked up, variant A25P S28P S29P)								Insulin adjunct therapy, glycemic control ([1]; ref [8]): improved glycemic control
rat amylin [rAmylin]	decreased free RAMP1 with increasing agonist	reduced free RAMP1 and increased the amount of the AMY1R heterodimer			no effect		appeared to increase the amount of AMY2R heterodimer	
salmon calcitonin [sCT]	little or no effect on subunit association/dissociation	did not appreciably change the free RAMP1	promoted AMY3R dissociation	similarly decreased it	decreased the BRET signal	a brief initial decrease followed by a gradual increase	induced formation of a higher order oligomeric species of unknown molecular composition	
